Measured values published in the NIST ThermoML archive (doi:10.1016/j.fluid.2010.10.009).

Legend:
[1] = 303.15 K; 101.33 kPa; Liquid; Concentric cylinders viscometry
[2] = xn = mol fraction of the nth substance listed; conditions: 101 kPa, Liquid, Concentric cylinders viscometry

CC(C)(C)O [2-methylpropan-2-ol]
Conditions | viscosity [mPa·s]
[1] | 3.387

CC(C)(C)O [2-methylpropan-2-ol] + CCCCCCC
viscosity [mPa·s], [2]
Conditions | 303.15 K | 308.15 K | 313.15 K | 318.15 K | 323.15 K
x1 = 0.103 | 0.3899 | 0.3703 | 0.353 | 0.3329 | 0.3144
x1 = 0.2002 | 0.4118 | 0.3885 | 0.367 | 0.3441 | 0.3201
x1 = 0.3006 | 0.4501 | 0.4228 | 0.3983 | 0.3737 | 0.3489
x1 = 0.3999 | 0.4922 | 0.463 | 0.433 | 0.4062 | 0.3805
x1 = 0.5001 | 0.558 | 0.5194 | 0.4838 | 0.4507 | 0.419
x1 = 0.6001 | 0.6624 | 0.6063 | 0.5587 | 0.5157 | 0.4765
x1 = 0.6996 | 0.8071 | 0.7282 | 0.667 | 0.6022 | 0.5477
x1 = 0.8001 | 1.1 | 0.9711 | 0.8581 | 0.7681 | 0.6836
x1 = 0.9 | 1.699 | 1.426 | 1.214 | 1.044 | 0.9079
x1 = 0.95 | 2.263 | 1.86 | 1.541 | 1.293 | 1.096
x1 = 1 | 3.387 | 2.63 | 2.097 | 1.707 | 1.415

CC(C)(C)O [2-methylpropan-2-ol] + CCCCCCCC
viscosity [mPa·s], [2]
Conditions | 303.15 K | 308.15 K | 313.15 K | 318.15 K | 323.15 K
x1 = 0.1002 | 0.5022 | 0.4758 | 0.4509 | 0.4272 | 0.4044
x1 = 0.2002 | 0.5263 | 0.4972 | 0.47 | 0.4443 | 0.4198
x1 = 0.2996 | 0.558 | 0.525 | 0.4943 | 0.4656 | 0.4377
x1 = 0.4003 | 0.6031 | 0.5644 | 0.5287 | 0.4956 | 0.4646
x1 = 0.5006 | 0.6658 | 0.6186 | 0.5757 | 0.5363 | 0.5
x1 = 0.5998 | 0.7587 | 0.6975 | 0.6429 | 0.5938 | 0.549
x1 = 0.7 | 0.912 | 0.8243 | 0.7485 | 0.6822 | 0.6233
x1 = 0.799 | 1.187 | 1.044 | 0.9254 | 0.8261 | 0.7415
x1 = 0.8499 | 1.438 | 1.236 | 1.075 | 0.9428 | 0.833
x1 = 0.9 | 1.781 | 1.496 | 1.275 | 1.099 | 0.958
x1 = 0.9235 | 2.015 | 1.669 | 1.404 | 1.198 | 1.034
x1 = 0.9499 | 2.353 | 1.913 | 1.584 | 1.333 | 1.136
x1 = 1 | 3.387 | 2.63 | 2.097 | 1.707 | 1.415

CC(C)(C)O [2-methylpropan-2-ol] + CCCCCCCCC
[2], x1 = 1
Conditions | viscosity [mPa·s]
303.15 K | 3.387
308.15 K | 2.63
313.15 K | 2.097
318.15 K | 1.707
323.15 K | 1.415

CC(C)(C)O [2-methylpropan-2-ol] + CCCCCCCCCC
[2], x1 = 1
Conditions | viscosity [mPa·s]
303.15 K | 3.387
308.15 K | 2.63
313.15 K | 2.097
318.15 K | 1.707
323.15 K | 1.415

CCCCCCCCCC [decane]
Conditions | viscosity [mPa·s]
[1] | 0.7838

CCCCCCCCCC [decane] + CC(C)(C)O
viscosity [mPa·s], [2]
Conditions | 303.15 K | 308.15 K | 313.15 K | 318.15 K | 323.15 K
x2 = 0 | 0.7838 | 0.7337 | 0.6883 | 0.6466 | 0.6085
x2 = 0.1003 | 0.7786 | 0.7263 | 0.6791 | 0.6362 | 0.597
x2 = 0.2001 | 0.7925 | 0.7382 | 0.6879 | 0.6422 | 0.6002
x2 = 0.3 | 0.825 | 0.7653 | 0.7104 | 0.6604 | 0.6153
x2 = 0.3997 | 0.8622 | 0.7934 | 0.7326 | 0.6775 | 0.627
x2 = 0.5 | 0.9148 | 0.8404 | 0.7726 | 0.7125 | 0.6566
x2 = 0.5999 | 0.9861 | 0.8974 | 0.8188 | 0.7493 | 0.6869
x2 = 0.6997 | 1.129 | 1.01 | 0.9091 | 0.8219 | 0.7459
x2 = 0.8001 | 1.372 | 1.199 | 1.058 | 0.9404 | 0.8399
x2 = 0.8999 | 1.937 | 1.621 | 1.376 | 1.182 | 1.024
x2 = 0.9499 | 2.366 | 1.948 | 1.614 | 1.357 | 1.155

CCCCCCC [heptane]
Conditions | viscosity [mPa·s]
[1] | 0.3773

CCCCCCC [heptane] + CC(C)(C)O
[2], x2 = 0
Conditions | viscosity [mPa·s]
303.15 K | 0.3773
308.15 K | 0.3603
313.15 K | 0.3432
318.15 K | 0.3269
323.15 K | 0.3106

CCCCCCCCC [nonane]
Conditions | viscosity [mPa·s]
[1] | 0.6323

CCCCCCCCC [nonane] + CC(C)(C)O
viscosity [mPa·s], [2]
Conditions | 303.15 K | 308.15 K | 313.15 K | 318.15 K | 323.15 K
x2 = 0 | 0.6323 | 0.5974 | 0.5652 | 0.5352 | 0.5073
x2 = 0.1012 | 0.6377 | 0.5996 | 0.5644 | 0.532 | 0.502
x2 = 0.2008 | 0.6593 | 0.6177 | 0.5795 | 0.5442 | 0.5114
x2 = 0.3 | 0.6872 | 0.6414 | 0.5995 | 0.5608 | 0.5247
x2 = 0.3999 | 0.7276 | 0.676 | 0.6289 | 0.5857 | 0.5459
x2 = 0.4995 | 0.7904 | 0.7297 | 0.6749 | 0.6251 | 0.5795
x2 = 0.5998 | 0.8796 | 0.8038 | 0.7366 | 0.6766 | 0.6227
x2 = 0.6991 | 1.027 | 0.923 | 0.8336 | 0.7558 | 0.6874
x2 = 0.7997 | 1.297 | 1.136 | 1.003 | 0.8918 | 0.7976
x2 = 0.9 | 1.856 | 1.556 | 1.323 | 1.137 | 0.9883
x2 = 0.9494 | 2.392 | 1.944 | 1.608 | 1.351 | 1.151

CCCCCCCC [octane]
Conditions | viscosity [mPa·s]
[1] | 0.4918

CCCCCCCC [octane] + CC(C)(C)O
[2], x2 = 0
Conditions | viscosity [mPa·s]
303.15 K | 0.4918
308.15 K | 0.4684
313.15 K | 0.447
318.15 K | 0.425
323.15 K | 0.4049
